Results published in ChEMBL document CHEMBL4402519, “The Mediterranean Diet as source of bioactive compounds with multi-targeting anti-cancer profile” (Eur J Med Chem, 2019).
pIC50: −log10 of the molar value. ≈ marks a conversion by molar mass, not a printed value.

Assays:
[1] = test system: HL-60; test: Growth inhibition of human HL60 cells after 72 hrs by MTT assay; format: functional, cell-based; conditions: HL-60, 72 h
[2] = test system: PC-3; test: Antiproliferative activity against human PC3 cells after 24 hrs by MTT assay; format: functional, cell-based; conditions: PC-3, 24 h
[3] = test system: PC-3; test: Antiproliferative activity against human PC3 cells after 48 hrs by MTT assay; format: functional, cell-based; conditions: PC-3, 48 h
[4] = test system: COLO 205; test: Induction of apoptosis in human COLO205 cells after 24 hrs; format: functional, cell-based; conditions: COLO 205, 24 h
[5] = test system: COLO 205; test: Induction of apoptosis in human COLO205 cells after 24 hrs relative to control; format: functional

Structure (SMILES) | IC50 [1] | further results
O=C1c2c(O)cc(O)cc2O[C@H](c2ccc(O)c(O)c2)[C@H]1O [(+)-TAXIFOLIN] | 0.01 to 0.94 µg/mL (≈ 0.0329 to 3.09 µM) | 
COc1ccc([C@@H]2CC(=O)c3c(O)cc(O)cc3O2)cc1O [HESPERETIN] |  | pIC50 [2]: 4.05; pIC50 [3]: 4.40
COc1ccc(-c2cc(=O)c3c(OC)c(OC)c(OC)c(OC)c3o2)cc1OC [NOBILETIN] | 0.01 to 0.94 µg/mL (≈ 0.0249 to 2.34 µM) | 
O=c1c(O)c(-c2ccc(O)c(O)c2)oc2cc(O)cc(O)c12 [QUERCETIN] | 0.01 to 0.94 µg/mL (≈ 0.0331 to 3.11 µM) | 
CC(C)c1cc2c(c(O)c1O)[C@@]13CCCC(C)(C)[C@@H]1[C@H](OC3=O)[C@H]2O [ROSMANOL] |  | pIC50 [4]: 4.38; Activity [5]: 51%
COc1ccc(-c2cc(=O)c3c(OC)c(OC)c(OC)c(OC)c3o2)cc1 [TANGERETIN] | 0.01 to 0.94 µg/mL (≈ 0.0269 to 2.52 µM) | 
